{"source": "patent US20230406831A1", "about": "“COMPOUNDS AND METHODS OF INHIBITING BACTERIAL CHAPERONIN SYSTEMS” (THE TRUSTEES OF INDIANA UNIVERSITY, priority 2020, published 2023)", "key": {"native MDH": {"target": "T1, native MDH (Sus scrofa, UniProt P00346)", "T1 construct": "soluble pig heart MDH from Roche, product #10127248001; purchased Roche 10127248001; host or cells: pig heart", "T1 sequence (P00346 25-338)": "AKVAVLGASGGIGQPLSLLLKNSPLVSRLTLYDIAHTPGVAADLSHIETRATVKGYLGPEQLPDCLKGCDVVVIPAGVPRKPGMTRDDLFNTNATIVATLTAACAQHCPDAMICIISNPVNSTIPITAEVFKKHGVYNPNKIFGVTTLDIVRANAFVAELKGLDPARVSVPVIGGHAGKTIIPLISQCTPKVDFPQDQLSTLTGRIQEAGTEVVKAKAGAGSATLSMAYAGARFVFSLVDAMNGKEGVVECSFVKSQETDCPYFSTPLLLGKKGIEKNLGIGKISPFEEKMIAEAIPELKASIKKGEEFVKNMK", "assay": "Native MDH enzymatic activity counter-screen", "assay_type": "biochemical, pig", "settings": "compounds added after refolding and EDTA quench, read-out: Biochemical Assay IC50 Native MDH Activity", "method_in_brief": "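GroEL/ES-refolded MDH (45 min, 37 °C, no compound) quenched with EDTA before compound addition, so only refolded enzyme is exposed. Activity started with 20 mM sodium mesoxalate and 2.4 mM NADH stock (50 mM Tris pH 7.4, 50 mM KCl, 1 mM DTT); NADH A340 followed to ~90% consumption.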"}, "GroEL/ES": {"target": "T2, GroEL/ES (Escherichia coli, UniProt P0A6F5)", "T2 construct": "made in house; host or cells: GroEL in E. coli DH5a; GroES in E. coli BL21 (DE3)", "T2 sequence (P0A6F5 2-548)": "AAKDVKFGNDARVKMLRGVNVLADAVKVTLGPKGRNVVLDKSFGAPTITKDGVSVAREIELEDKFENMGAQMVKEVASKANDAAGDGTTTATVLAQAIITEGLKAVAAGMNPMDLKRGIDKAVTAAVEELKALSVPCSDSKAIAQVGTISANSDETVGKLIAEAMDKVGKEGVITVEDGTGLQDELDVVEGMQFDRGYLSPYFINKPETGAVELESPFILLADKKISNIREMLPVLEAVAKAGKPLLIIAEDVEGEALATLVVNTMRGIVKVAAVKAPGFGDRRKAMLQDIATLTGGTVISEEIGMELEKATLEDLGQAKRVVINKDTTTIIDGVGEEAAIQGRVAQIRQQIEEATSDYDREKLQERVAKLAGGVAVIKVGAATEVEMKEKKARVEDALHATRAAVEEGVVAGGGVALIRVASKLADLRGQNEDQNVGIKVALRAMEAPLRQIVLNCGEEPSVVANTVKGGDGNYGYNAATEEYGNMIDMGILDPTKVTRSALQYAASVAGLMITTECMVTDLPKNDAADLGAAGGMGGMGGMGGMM", "assay": "GroEL/ES-mediated dMDH refolding assay", "assay_type": "biochemical, E. coli", "method_in_brief": "(§1)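 Pre-formed chaperonin–denatured pig heart MDH complexes (50 nM GroEL or HSP60, 60 nM GroES or HSP10, 12 nM dMDH) refolded with 1 mM ATP and compound (100 μM–46 nM) at 37 °C, ~20-40 min for GroEL/ES or ~40-60 min for HSP60/10. After EDTA quench, MDH activity was read as NADH loss at A340. IC50 came from variable-slope regression.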"}, "HSP60/10": {"target": "T3, HSP60/10 (Homo sapiens, UniProt P10809)", "T3 construct": "octa-Histidine (His8) tag, TEV-cleavable (N, cleaved yes); made in house; host or cells: HSP60 in Rosetta 2 (DE3) E. coli; HSP10 in Rosetta 2 (DE3) pLysS", "T3 sequence (P10809 27-573)": "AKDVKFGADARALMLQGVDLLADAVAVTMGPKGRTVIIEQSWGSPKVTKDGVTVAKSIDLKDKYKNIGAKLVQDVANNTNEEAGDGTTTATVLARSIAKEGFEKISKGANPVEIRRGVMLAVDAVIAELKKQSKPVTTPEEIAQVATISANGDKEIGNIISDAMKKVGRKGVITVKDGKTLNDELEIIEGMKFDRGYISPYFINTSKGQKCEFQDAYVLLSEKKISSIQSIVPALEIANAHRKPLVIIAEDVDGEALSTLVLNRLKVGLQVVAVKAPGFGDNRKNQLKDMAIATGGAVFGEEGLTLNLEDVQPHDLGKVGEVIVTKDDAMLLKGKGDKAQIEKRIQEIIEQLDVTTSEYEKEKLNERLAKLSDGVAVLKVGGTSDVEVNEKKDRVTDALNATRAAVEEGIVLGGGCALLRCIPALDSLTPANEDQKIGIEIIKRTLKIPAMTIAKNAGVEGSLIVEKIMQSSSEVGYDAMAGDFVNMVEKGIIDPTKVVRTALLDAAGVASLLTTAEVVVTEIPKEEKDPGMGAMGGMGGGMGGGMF", "assay": "HSP60/10-mediated dMDH refolding assay", "assay_type": "biochemical", "settings": "37° C., 1 mM ATP, read-out: Biochemical Assay IC50 HSP60/10-dMDH Refolding", "method_in_brief": "as §1"}}, "note": "Read-outs that look alike come from different tables or passages of the source.", "data": [{"smiles": "COc1ccc(Cl)cc1C(=O)Nc1ccccc1", "note": "[Compound 116, 5-chloro-2-methoxy-N-phenylbenzamide]", "values": [{"measurement": "IC50", "setting": "native MDH; Table 3", "result": "> 63", "unit": "µM"}, {"measurement": "IC50", "setting": "GroEL/ES", "result": "> 100", "unit": "µM"}, {"measurement": "IC50", "setting": "HSP60/10; Table 3", "result": "> 100", "unit": "µM"}]}, {"smiles": "O=C(Nc1ccc([N+](=O)[O-])cc1Cl)c1cc(Cl)ccc1O", "note": "[Niclosamide, reference compound]", "values": [{"measurement": "IC50", "setting": "native MDH; Table 1", "result": "> 63", "unit": "µM"}, {"measurement": "IC50", "setting": "native MDH; Table 3", "result": "> 63", "unit": "µM"}, {"measurement": "IC50", "setting": "GroEL/ES", "result": "> 100", "unit": "µM"}, {"measurement": "IC50", "setting": "GroEL/ES; read-out: Biochemical Assay IC50 GroEL/ES-dMDH Refolding, Table 3, 37° C., 1 mM ATP", "result": "> 100", "unit": "µM"}, {"measurement": "IC50", "setting": "HSP60/10; Table 1", "result": "> 100", "unit": "µM"}, {"measurement": "IC50", "setting": "HSP60/10; Table 3", "result": "> 100", "unit": "µM"}]}, {"smiles": "CC(=O)Nc1cc(Cl)c(C(C#N)c2ccc(Cl)cc2)cc1C", "note": "(stereo not drawn) [Compound 83, N-(5-chloro-4-((4-chlorophenyl)(cyano)methyl)-2-methylphenyl)acetamide]", "values": [{"measurement": "IC50", "setting": "native MDH; Table 2", "result": "> 63", "unit": "µM"}, {"measurement": "IC50", "setting": "GroEL/ES", "result": "> 100", "unit": "µM"}, {"measurement": "IC50", "setting": "HSP60/10; Table 2", "result": 69, "unit": "µM"}]}, {"smiles": "Cc1cc(C(C#N)c2ccc(Cl)cc2)c(Cl)cc1NC(=O)c1ccccc1Br", "note": "(stereo not drawn) [Compound 73, 2-bromo-N-(5-chloro-4-((4-chlorophenyl)(cyano)methyl)-2-methylphenyl)benzamide]", "values": [{"measurement": "IC50", "setting": "native MDH; Table 2", "result": "> 63", "unit": "µM"}, {"measurement": "IC50", "setting": "GroEL/ES", "result": 53, "unit": "µM"}, {"measurement": "IC50", "setting": "HSP60/10; Table 2", "result": "> 100", "unit": "µM"}]}, {"smiles": "Cc1cc(C(C#N)c2ccc(Cl)cc2)c(Cl)cc1NC(=O)c1cccc(Br)c1", "note": "(stereo not drawn) [Compound 74, 3-bromo-N-(5-chloro-4-((4-chlorophenyl)(cyano)methyl)-2-methylphenyl)benzamide]", "values": [{"measurement": "IC50", "setting": "native MDH; Table 2", "result": "> 63", "unit": "µM"}, {"measurement": "IC50", "setting": "GroEL/ES", "result": 50, "unit": "µM"}, {"measurement": "IC50", "setting": "HSP60/10; Table 2", "result": "> 100", "unit": "µM"}]}, {"smiles": "COc1cc(Cl)ccc1C(=O)Nc1cc(Cl)c(C(C#N)c2ccc(Cl)cc2)cc1C", "note": "(stereo not drawn) [Compound 55, 4-chloro-N-(5-chloro-4-((4-chlorophenyl)(cyano)methyl)-2-methylphenyl)-2-methoxybenzamide]", "values": [{"measurement": "IC50", "setting": "native MDH; Table 2", "result": "> 63", "unit": "µM"}, {"measurement": "IC50", "setting": "GroEL/ES", "result": 59, "unit": "µM"}, {"measurement": "IC50", "setting": "HSP60/10; Table 2", "result": "> 100", "unit": "µM"}]}, {"smiles": "COC(=O)c1ccc(NC(=O)c2cc(Cl)ccc2O)cc1", "note": "[Compound 107, methyl 4-(5-chloro-2-hydroxybenzamido)benzoate]", "values": [{"measurement": "IC50", "setting": "native MDH; Table 3", "result": "> 63", "unit": "µM"}, {"measurement": "IC50", "setting": "GroEL/ES", "result": 83, "unit": "µM"}, {"measurement": "IC50", "setting": "HSP60/10; Table 3", "result": "> 100", "unit": "µM"}]}, {"smiles": "O=C(Nc1ccc(CCc2ccccc2)cc1)c1cc(Cl)ccc1O", "note": "[Compound 101]", "values": [{"measurement": "IC50", "setting": "native MDH; Table 3", "result": "> 63", "unit": "µM"}, {"measurement": "IC50", "setting": "GroEL/ES", "result": 54, "unit": "µM"}, {"measurement": "IC50", "setting": "HSP60/10; Table 3", "result": 81, "unit": "µM"}]}, {"smiles": "COc1c(Br)cc(Br)cc1C(=O)Nc1cc(Cl)c(C(C#N)c2ccc(Cl)cc2)cc1C", "note": "(stereo not drawn) [Compound 45, 3,5-dibromo-N-(5-chloro-4-((4-chlorophenyl)(cyano)methyl)-2-methylphenyl)-2-methoxybenzamide]", "values": [{"measurement": "IC50", "setting": "native MDH; Table 2", "result": "> 63", "unit": "µM"}, {"measurement": "IC50", "setting": "GroEL/ES", "result": 30, "unit": "µM"}, {"measurement": "IC50", "setting": "HSP60/10; Table 2", "result": "> 100", "unit": "µM"}]}, {"smiles": "COc1c(Cl)cc(Cl)cc1C(=O)Nc1cc(Cl)c(C(C#N)c2ccc(Cl)cc2)cc1C", "note": "(stereo not drawn) [Compound 51, 3,5-dichloro-N-(5-chloro-4-((4-chlorophenyl)(cyano)methyl)-2-methylphenyl)-2-methoxybenzamide]", "values": [{"measurement": "IC50", "setting": "native MDH; Table 2", "result": "> 63", "unit": "µM"}, {"measurement": "IC50", "setting": "GroEL/ES", "result": 38, "unit": "µM"}, {"measurement": "IC50", "setting": "HSP60/10; Table 2", "result": 86, "unit": "µM"}]}, {"smiles": "O=C(Nc1ccc(Cc2ccccc2)cc1)c1cc(Cl)ccc1O", "note": "[Compound 99, N-(4-benzylphenyl)-5-chloro-2-hydroxybenzamide]", "values": [{"measurement": "IC50", "setting": "native MDH; Table 3", "result": "> 63", "unit": "µM"}, {"measurement": "IC50", "setting": "GroEL/ES", "result": 77, "unit": "µM"}, {"measurement": "IC50", "setting": "HSP60/10; Table 3", "result": "> 100", "unit": "µM"}]}, {"smiles": "O=C(Nc1ncc([N+](=O)[O-])s1)c1ccccc1O", "note": "[Tizoxanide, reference compound]", "values": [{"measurement": "IC50", "setting": "native MDH; Table 1", "result": "> 63", "unit": "µM"}, {"measurement": "IC50", "setting": "GroEL/ES", "result": "> 100", "unit": "µM"}, {"measurement": "IC50", "setting": "HSP60/10; Table 1", "result": "> 100", "unit": "µM"}]}]}
